Source: article PMC4604100, “Melanocortin agonists stimulate lipolysis in human adipose tissue explants but not in adipocytes” (BMC Research Notes, 2015)
“Also recorded” adds a separate entry of the source. Each block holds one compound with its values, some of them ahead of it. Where no end group is shown, it is not given here.

Columns and labels:
[1] = test system: intact human white adipose tissue explants; test: NEFA release in human WAT explants (lipolysis); type: cell-based; details: for increase in NEFA release compared to vehicle: 100 nM, 3 h stimulation, mean of 6 (α-MSH 3) independent experiments in triplicate wells; for increase in NEFA release compared to vehicle / stimulation of NEFA release / lipolysis (in words): subcutaneous explants from non-obese females; for Emax of lipolysis compared to isoproterenol (in words): intact human WAT explants; for stimulation of NEFA release / lipolysis (in words): 100 nM–10 μM, 3 h, one-tailed t test vs. vehicle
Description: (§1) Adipose tissue biopsies used for stimulation of lipolysis were taken from the subcutaneous abdominal region by needle aspiration as previously described. The experimental group consisted of 6 non-diabetic females with a normal/preobese BMI (average BMI = 25.5). All biopsies were transported in sterile containers to the laboratory within 30 min after removal. The biopsies were washed repeatedly with isotonic saline and were used for subsequent culture.
(§2) Induction of NEFA and glycerol release in adipocytes and intact adipose tissue explants was used as a measure of lipolysis with β-adrenergic agonist isoproterenol as a positive control as previously described. When using propranolol, 10 μM was used as final concentration. 250 mg of human adipose tissue was placed in 15 mL tubes, immediately covered with 2.5 mL of preheated (37 °C) hyclone media and preincubated for 24 h. After 24 h, the media was replenished and explants were stimulated with the indicated melanocortin peptide for 3 h before harvesting the supernatant for NEFA and glycerol analysis. In house testing has shown no indications of hypoxia when stimulating explants (data not shown). All test compounds were dissolved to 4 mM in DMSO (highest DMSO concentration of 0.25 % in the assay) and diluted in DPBS buffer + 2 % bovine serum albumin (BSA). Human subcutaneous adipocytes purchased from Zenbio Inc., were used in stimulation of lipolysis (n = 4). These adipocytes have been isolated from obese males. When receiving the cells (and partially during transportation), the cells was differentiated from a pre-state to a mature state before the cells are used for experiments. The cells were handled according to the description from ZenBio Inc. Two hours was chosen as the optimal incubation time span for primary adipocytes, based on similar experiments in other species. […] Measures of melanocortin-stimulated glycerol release were added in explant lipolysis studies.
(§3) Data from the NEFA and the glycerol assay were obtained using the protocol supplied by the manufactures. Released NEFAs were analyzed in Graphpad Prism and one-tailed t test was used to calculate statistical significance between 2 groups (*p < 0.05, **p < 0.01, ***p < 0.001, no * indicates insignificance). Ki values in bindings studies were calculated as Ki = IC50/1 + [radioligand]/Kd. Data from binding studies was analyzed in Graphpad Prism.

[2] = test system: human subcutaneous adipocytes; test: NEFA release in differentiated human subcutaneous adipocytes; type: cell-based; details: for stimulation of NEFA release (in words): human subcutaneous adipocytes (ZenBio, obese males), 1 pM–10 μM, n = 4
Description: as §2, §3

[3] = test system: intact human white adipose tissue explants; test: Glycerol release in human WAT explants (lipolysis); type: cell-based; details: subcutaneous explants from non-obese females, 100 nM–10 μM, 3 h; mean of 2 independent experiments in triplicate wells
Description: as §1
Induction of NEFA and glycerol release in adipocytes and intact adipose tissue explants was used as a measure of lipolysis with β-adrenergic agonist isoproterenol as a positive control as previously described. When using propranolol, 10 μM was used as final concentration. 250 mg of human adipose tissue was placed in 15 mL tubes, immediately covered with 2.5 mL of preheated (37 °C) hyclone media and preincubated for 24 h. After 24 h, the media was replenished and explants were stimulated with the indicated melanocortin peptide for 3 h before harvesting the supernatant for NEFA and glycerol analysis. In house testing has shown no indications of hypoxia when stimulating explants (data not shown). All test compounds were dissolved to 4 mM in DMSO (highest DMSO concentration of 0.25 % in the assay) and diluted in DPBS buffer + 2 % bovine serum albumin (BSA). Human subcutaneous adipocytes purchased from Zenbio Inc., were used in stimulation of lipolysis (n = 4). These adipocytes have been isolated from obese males. When receiving the cells (and partially during transportation), the cells was differentiated from a pre-state to a mature state before the cells are used for experiments. […]
as §3

[4] = test system: MC4R over MC3R; details: factor; ref [46] Greenfield et al.; cited from earlier work
[5] = test system: MC4R over MC1R; details: factor; ref [46] Greenfield et al.; cited from earlier work
[6] = test system: human MCRs; test: Binding rank order across human MCRs; details: order of affinity
Description: (§4) The human MC1R, MC3R, MC4R and MC5R were cloned by PCR and subcloned into the pcDNA3 expression vector, as previously described by Conde-Frieboes et al.. Cells stably expressing the human MCRs were generated by transfecting the expression vector into BHK570 cells (ATTC) and using 1 mg/mL G418 to select for stable clones. The stable cell lines were cultured in DMEM with glutamax, 10 % FCS, 1 % pen/strep, and 1 mg/mL G418 at 37 °C and 5 % CO2. […] Test compounds were dissolved to a 4 mM concentration in DMSO and diluted in a receptor specific binding buffer. […] A filtration system was employed to separate bound from unbound radioligand.
(§5) Data analysis and statistics

[7] = test system: MC3R; details: antagonist; ref [47]; cited from earlier work
[8] = test system: MC5R; details: agonist; ref [47]; cited from earlier work
[9] = target: T1, hMC1R (Homo sapiens, UniProt Q01726); test: Competition binding of 125I-NDP-α-MSH to membranes of BHK570 cells expressing hMC1R; details: competition with fixed 125I-NDP-α-MSH, test compound 1 pM–10 μM, filtration, average of repeated independent experiments ± SEM, n = 3 (α-MSH n = 18)
T1 construct: expressed in transfected cells
T1 sequence (Q01726 whole entry): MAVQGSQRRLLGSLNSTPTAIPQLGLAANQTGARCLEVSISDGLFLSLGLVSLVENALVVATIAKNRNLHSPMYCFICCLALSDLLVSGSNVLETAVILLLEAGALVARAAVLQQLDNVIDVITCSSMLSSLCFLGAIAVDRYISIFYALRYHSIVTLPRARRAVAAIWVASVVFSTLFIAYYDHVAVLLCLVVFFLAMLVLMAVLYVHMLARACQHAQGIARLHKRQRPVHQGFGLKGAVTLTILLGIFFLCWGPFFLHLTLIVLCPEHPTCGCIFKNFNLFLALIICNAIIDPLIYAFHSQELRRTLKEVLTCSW
Description: as §4, §5

[10] = test system: human white adipose tissue (WAT) explants; test: NEFA release in human WAT explants ± propranolol; type: cell-based
Description: as §1, §2, §3

[11] = test system: WAT; set-up: method as in earlier work; details: intranasal administration; ref [50] Wellhöner et al.; cited from earlier work
Text: However, it should be taken into account, that there may be downstream MCR mechanisms of propranolol that are unknown, which is a precaution using this antagonist. Depleting the explants with reserpine before stimulation could add additional confidence to the ...

[12] = test system: mesenchymal stem cell-derived adipocytes; details: ref [52] Hoch et al.; cited from earlier work
Text: (§6) The lack of lipolytic response seen in adipocytes is supported by previous studies by Hoch et al. [[5 ...

[13] = test system: mesenchymal stem cell-derived adipocytes; intact adipose tissue explants; details: mesenchymal stem cell-derived adipocytes or intact adipose tissue explants; ref [52] Hoch et al.; cited from earlier work
Text: as §6

[14] = test system: adipocytes or intact human adipose tissue; details: own finding "supported by other studies", ref [51], [52]; cited from earlier work
Text: (§7) ACTH is a larger peptide than both α-MSH and the synthetic melanocortin compounds used in this study.

[15] = test system: adipocytes isolated from subcutaneous adipose tissue; details: adipocytes isolated from subcutaneous adipose tissue of non-diabetic human; ref [53] Xue et al.; cited from earlier work
Text: as §7

[16] = test system: rabbit adipocytes; details: ref [39] Richter et al.; cited from earlier work
Text: MC5R is extensively distributed in the periphery, and is reported to regulate sebaceous gland secretion and fatty acid oxidation in skeletal muscle. The melanocortin system has a well-established lipolytic effect in rodent adipose tissues. Studies in murine primary adipocytes and differentiated 3T3-L1 adipocytes show a direct lipolytic effect of MC2R and MC5R when stimulated by various endogenous and synthetic melanocortin agonists.

[17] = test system: primary mouse adipocytes; details: mediated by MC2R and MC5R, ref [35], [37], [38]; cited from earlier work
Text: as §6

Compound: CC(=O)N[C@H](CCCNC(=N)N)C(=O)N[C@H]1CSSC[C@@H](C(N)=O)NC(=O)[C@H](Cc2c[nH]c3ccccc23)NC(=O)[C@H](CCCNC(=N)N)NC(=O)[C@@H](Cc2ccccc2)NC(=O)[C@H](Cc2c[nH]cn2)NC(=O)[C@H](CCC(=O)O)NC1=O [LY2112688]
- increase in NEFA release compared to vehicle [1]: 46%
- Emax of lipolysis compared to isoproterenol (in words) [1]: relatively lower Emax
- stimulation of NEFA release / lipolysis (in words) [1]: significantly stimulated lipolysis; also recorded: stimulated a low, though significant, release of NEFA; also recorded: significantly stimulate release of NEFA
- stimulation of NEFA release (in words) [2]: failed to stimulate NEFA release
- stimulation of glycerol release (in words) [3]: stimulated release of glycerol
- increased affinity for MC4R over MC3R [4]: more than 100
- increased affinity for MC4R over MC1R [5]: more than 30
- binding rank order [6]: MC4R > MC3R > MC1R

Compound: CCCC[C@H](NC(C)=O)C(=O)N[C@H]1CC(=O)NCCCC[C@@H](C(N)=O)NC(=O)[C@H](Cc2c[nH]c3ccccc23)NC(=O)[C@H](CCCNC(=N)N)NC(=O)[C@@H](Cc2ccc3ccccc3c2)NC(=O)[C@@H]2CCCN2C1=O [PG-901]
- binding to MC3R (in words) [7]: high affinity
- increase in NEFA release compared to vehicle [1]: 38%
- Emax of lipolysis compared to isoproterenol (in words) [1]: relatively lower Emax
- stimulation of NEFA release / lipolysis (in words) [1]: significantly stimulated lipolysis; also recorded: stimulated a low, though significant, release of NEFA; also recorded: significantly stimulate release of NEFA
- stimulation of NEFA release (in words) [2]: failed to stimulate NEFA release
- binding to MC5R (in words) [8]: high affinity
- stimulation of glycerol release (in words) [3]: stimulated release of glycerol
- Ki [9]: 2700 ± 153 nM

Compound: CC(C)NCC(O)c1ccc(O)c(O)c1 (stereo not drawn) [isoproterenol]
- increase in NEFA release compared to vehicle [1]: 114%
- stimulation of NEFA release / lipolysis (in words) [1]: potent release of NEFA
- stimulation of NEFA release (in words) [2]: potent release of NEFA

Compound: CC(C)NCC(O)COc1cccc2ccccc12 (stereo not drawn) [propranolol]
- decrease of LY2112688-stimulated NEFA release (in words) ([10]; 10 μM propranolol + LY2112688 (100 nM–10 μM), female human subcutaneous explants, 3 independent experiments in triplicate wells): did not significantly decrease the release of NEFA
- decrease of PG-901-stimulated NEFA release (in words) ([10]; 10 μM propranolol + PG-901 (100 nM–10 μM), female human subcutaneous explants, 3 independent experiments in triplicate wells): significantly decreased the release of NEFA
- decrease of isoproterenol-stimulated NEFA release (in words) ([10]; 10 μM propranolol + isoproterenol, female human subcutaneous explants, 3 independent experiments in triplicate wells): significantly decreased the release of NEFA
- inhibition of NEFA release on co-incubation (in words) ([10]; propranolol co-incubation, MC4R/MC5R-mediated lipolysis, overview figure): inhibits NEFA release

Compound: MSH/ACTH(4-10): intranasally administered melanocortin fragment in Wellhöner et al. (MEHFRWG; Corticotropin; UniProt P01189 141-147, looked up, fragment)
- glycerol concentrations in WAT (in words) [11]: increased glycerol concentrations in WAT

Compound: NDP-α-MSH
- cAMP response (in words) [12]: weak cAMP response
- effect on lipolysis (in words) [13]: did not find an effect on lipolysis

- binding rank order [6]: MC1R > MC4R > MC3R > MC5R
Compound: SYSMEHFRWGKPVGKKRRPVKVYPNGAEDESAEAFPLEF [ACTH]
- lipolytic capacity (in words) [14]: no lipolytic capacity
- stimulation of lipolysis (in words) [15]: stimulated lipolysis
- lipolytic capacity (in words) ([1]; intact human adipose tissue): no lipolytic capacity
- stimulation of NEFA release / lipolysis (in words) [1]: failed to stimulate NEFA
- lipolytic capacity (in words) ([2]; adipocytes): no lipolytic capacity
- stimulation of NEFA release (in words) [2]: failed to stimulate NEFA release
- stimulation of glycerol release (in words) [3]: failed to stimulate NEFA and glycerol release
- effect on lipolysis (in words) [16]: direct effect
- lipolytic capacity (in words) [17]: lipolytic capacity
